# Experimental data published in article PMC5435539 (Journal of applied toxicology : JAT, 2017).
# Like-named read-outs stand apart in the source and are kept apart here.
# What was measured:
# human CYP2C19 = human CYP2C19 (Homo sapiens, UniProt P33261); assay: Fluorometric CYP inhibition assay; type: biochemical; details: read-out: IC50 CYP2C19 activity; recombinant human CYP2C19, CEC 25 μM
# [1] = test system: MCF-10A breast epithelial cells; assay: Reactive oxygen species; type: cell-based, human; details: 2 h, MCF-10A cells
# [2] = test system: MCF-7 breast cancer cells; assay: Alamar Blue cell viability assay, 72 h; type: cell-based; details: read-out: IC50 MCF-7 cell viability, 72 h
# [3] = test system: MCF-10A breast epithelial cells; assay: Cell viability assay; type: cell-based, human; details: for IC50 MCF-10A: 24 h exposure, 1 nM-100 μM, MTS or Alamar Blue, mean ±SEM; for IC50: Homo sapiens, MCF-10A, 24 h, read-out: IC50 MCF-10A
# [4] = test system: CCD18 Co normal colon cells; assay: Cell viability assay; type: cell-based; details: for IC50 CCD18 Co: 24 h exposure, 1 nM-100 μM, MTS or Alamar Blue, mean ±SEM
# [5] = test system: HT29 colon carcinoma cells; assay: Cell viability assay; type: cell-based; details: for IC50 HT29: 24 h exposure, 1 nM-100 μM, MTS or Alamar Blue, mean ±SEM; for IC50: Homo sapiens, HT-29, 24 h, read-out: IC50 HT29
# MCF-7 cells [6] = assay: Alamar Blue cell viability assay, 24 h; type: cell-based; details: read-out: IC50 MCF-7 (Alamar Blue), 24 h treatment
# MCF-7 cells [7] = assay: Annexin V-7AAD apoptosis assay; type: cell-based; details: 1 μM, 24 h, AnnexinV-7AAD
# human CYP1A1 = target: T1, human CYP1A1 (Homo sapiens, UniProt P04798); assay: Fluorometric CYP inhibition assay; type: biochemical
# T1 sequence (P04798 1-512): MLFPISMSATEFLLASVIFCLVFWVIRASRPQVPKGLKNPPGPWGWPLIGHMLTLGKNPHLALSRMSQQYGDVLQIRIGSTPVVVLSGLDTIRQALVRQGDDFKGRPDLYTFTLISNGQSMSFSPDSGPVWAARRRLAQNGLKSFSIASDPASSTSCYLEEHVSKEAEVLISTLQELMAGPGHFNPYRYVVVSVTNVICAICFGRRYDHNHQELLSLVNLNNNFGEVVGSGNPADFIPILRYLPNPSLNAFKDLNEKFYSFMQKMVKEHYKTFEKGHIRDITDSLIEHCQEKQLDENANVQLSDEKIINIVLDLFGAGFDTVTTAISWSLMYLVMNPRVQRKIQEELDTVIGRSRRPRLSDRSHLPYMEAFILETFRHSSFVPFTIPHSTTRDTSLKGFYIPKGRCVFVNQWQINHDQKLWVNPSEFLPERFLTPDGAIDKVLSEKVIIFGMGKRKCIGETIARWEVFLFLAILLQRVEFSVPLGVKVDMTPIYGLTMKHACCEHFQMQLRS
# human CYP1B1 = target: T2, human CYP1B1 (Homo sapiens, UniProt Q16678); assay: Fluorometric CYP inhibition assay; type: biochemical; details: recombinant human CYP1B1
# T2 sequence (Q16678 1-543): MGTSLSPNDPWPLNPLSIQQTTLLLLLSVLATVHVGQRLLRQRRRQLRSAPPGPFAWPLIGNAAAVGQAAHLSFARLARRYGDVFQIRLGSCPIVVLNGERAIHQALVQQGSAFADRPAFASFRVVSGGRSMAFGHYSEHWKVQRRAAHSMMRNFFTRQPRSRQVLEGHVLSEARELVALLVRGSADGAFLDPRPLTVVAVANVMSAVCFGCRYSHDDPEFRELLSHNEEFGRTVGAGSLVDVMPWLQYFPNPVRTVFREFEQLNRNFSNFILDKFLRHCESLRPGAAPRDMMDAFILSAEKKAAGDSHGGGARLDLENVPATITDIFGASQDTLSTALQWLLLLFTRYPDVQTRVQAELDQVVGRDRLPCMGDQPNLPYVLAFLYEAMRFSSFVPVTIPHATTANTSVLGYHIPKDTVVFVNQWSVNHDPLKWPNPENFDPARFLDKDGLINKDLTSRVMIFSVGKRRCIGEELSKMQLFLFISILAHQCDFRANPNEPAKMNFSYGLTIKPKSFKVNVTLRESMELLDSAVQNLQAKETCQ
# human CYP3A4 = human CYP3A4 (Homo sapiens, UniProt P08684); assay: Fluorometric CYP inhibition assay; type: biochemical; details: read-out: IC50 CYP3A4 activity; recombinant human CYP3A4, BFC 50 μM
# Chain of human CYP3A4 (P08684 whole entry): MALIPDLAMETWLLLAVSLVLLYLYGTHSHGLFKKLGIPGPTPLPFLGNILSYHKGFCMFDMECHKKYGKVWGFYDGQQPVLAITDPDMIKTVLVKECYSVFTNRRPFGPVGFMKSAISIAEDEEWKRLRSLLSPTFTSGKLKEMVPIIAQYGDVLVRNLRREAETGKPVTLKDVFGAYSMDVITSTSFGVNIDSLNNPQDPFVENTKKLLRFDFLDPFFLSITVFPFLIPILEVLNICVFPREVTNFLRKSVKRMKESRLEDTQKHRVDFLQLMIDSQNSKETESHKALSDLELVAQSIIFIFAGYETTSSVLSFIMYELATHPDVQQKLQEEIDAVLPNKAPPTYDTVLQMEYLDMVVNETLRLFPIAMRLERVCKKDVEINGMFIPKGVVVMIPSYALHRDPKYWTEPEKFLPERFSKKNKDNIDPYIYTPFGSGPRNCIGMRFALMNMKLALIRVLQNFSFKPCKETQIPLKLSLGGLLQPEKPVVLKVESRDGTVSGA
# CYP1A1 mRNA = assay: Real-time quantitative RT-PCR, B[a]P-induced gene expression in MCF-7 cells; type: cell-based; details: Gg 10-100 nM with B[a]P, 24 h
# CYP1A2 mRNA = assay: as above; type: cell-based; details: Gg 10-100 nM with B[a]P, 24 h
# CYP1 enzymes mRNA = assay: Endogenous CYP1 mRNA expression in breast cancer cells; type: cell-based; details: Gg alone, data not shown
# [8] = test system: CYP1A1 protein expression; assay: B[a]P-induced CYP1A1 protein expression; type: cell-based; details: data not shown
# Chain of human CYP2C19 (P33261 whole entry): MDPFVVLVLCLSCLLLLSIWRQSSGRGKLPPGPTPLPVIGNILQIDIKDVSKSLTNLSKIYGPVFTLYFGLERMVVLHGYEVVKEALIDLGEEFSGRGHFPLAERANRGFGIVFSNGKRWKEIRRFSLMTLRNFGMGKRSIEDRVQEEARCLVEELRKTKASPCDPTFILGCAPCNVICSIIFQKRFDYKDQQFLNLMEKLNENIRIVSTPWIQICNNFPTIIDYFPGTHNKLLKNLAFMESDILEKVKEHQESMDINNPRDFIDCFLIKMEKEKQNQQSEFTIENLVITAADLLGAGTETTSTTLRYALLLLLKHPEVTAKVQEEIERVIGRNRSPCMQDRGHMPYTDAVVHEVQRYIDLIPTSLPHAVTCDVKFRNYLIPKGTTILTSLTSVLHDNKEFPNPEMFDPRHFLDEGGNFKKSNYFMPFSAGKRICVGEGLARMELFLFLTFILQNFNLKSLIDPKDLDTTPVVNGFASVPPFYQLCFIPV
molecule,measurement,setting,value
"CCC1(c2ccccc2)C(=O)NC(=O)N(Cc2ccccc2)C1=O (single isomer, unassigned; (-)) [NBPB, (−)-N-3-benzyl-phenobarbital, reference compound]",IC50,human CYP2C19,0.3 ± 0.01 µM
"O=C1C=Cc2ccc3c4c(ccc1c24)-c1ccccc1C3=O [1,6-BPQ, benzo[a]pyrene-1,6-quinone, reference compound]",increase in ROS levels,"[1]; 1,6-BPQ 2 μM",2 fold
"CC/C(=C(\c1ccc(O)cc1)c1ccc(OCCN(C)C)cc1)c1ccccc1 [4OH-Tam, 4-hydroxy-tamoxifen]",IC50,"[2]; Homo sapiens, MCF7, 72 h",2.6 µM
"O=c1[nH]cc(F)c(=O)[nH]1 [5-Fluorouracil, reference compound]",IC50 MCF-10A,[3],NI (No inhibition (<10% inhibition at 60 μM))
same,IC50,"[2]; Homo sapiens, MCF7, 72 h",> 10 µM
"CC1=CC(=O)[C@@H](O)[C@]2(C)[C@H]3[C@]4(O)OC[C@]35[C@H]([C@@H](C)[C@H]4O)[C@@H](O)C(=O)O[C@@H]5C[C@@H]12 [(−)-Glaucarubolone, (−)-glaucarubolone]",IC50 CCD18 Co,[4],NI (No inhibition (<10% inhibition at 60 μM))
same,IC50 HT29,[5],NI (No inhibition (<10% inhibition at 60 μM))
same,IC50 MCF-10A,[3],NI (No inhibition (<10% inhibition at 60 μM))
"CC(=O)O[C@H]1C(=O)O[C@@H]2C[C@H]3C(C)=CC(=O)[C@@H](O)[C@]3(C)[C@H]3[C@]4(O)OC[C@]32[C@@H]1[C@@H](C)[C@H]4O [(−)-Holacanthone, (−)-holacanthone]",IC50,"[4]; Homo sapiens, CCD-18Co, 24 h, read-out: IC50 CCD18 Co",< 5 µM
same,IC50,[5],9.91 ± 0.52 µM
same,IC50,[3],0.3 µM
"COc1cccc2c1C(=O)c1c(O)c3c(c(O)c1C2=O)C[C@@](O)(C(=O)CO)C[C@@H]3O[C@H]1C[C@H](N)[C@H](O)[C@H](C)O1 [Doxorubicin, reference compound]",IC50,[3],30.2 ± 1.29 µM
same,IC50,"[2]; Homo sapiens, MCF7, 72 h",0.1 µM
"COc1cc2ccc(=O)oc2cc1O [Scopoletin, scopoletin]",IC50 CCD18 Co,[4],NI (No inhibition (<10% inhibition at 60 μM))
same,inhibition of viability of CCD18Co normal colon cells,"[4]; at 60 μM, 24 h",< 10%
same,IC50,[5],19.3 ± 0.348 µM
same,IC50 MCF-10A,[3],NI (No inhibition (<10% inhibition at 60 μM))
glaucarubulone glucoside [Gg],IC50 HT29,[5],NI (No inhibition (<10% inhibition at 60 μM))
same,IC50 MCF-10A,[3],NI (No inhibition (<10% inhibition at 60 μM))
same,IC50,MCF-7 cells [6],3.52 ± 0.918 µM
same,IC50,"[2]; 72 h exposure, Alamar Blue",0.121 µM
same,early apoptosis,MCF-7 cells [7],26.5 ± 9.5%
same,mode of inhibition of CYP1A1,human CYP1A1; Eadie-Hofstee plots,non-competitive
same,IC50,"human CYP1A1; read-out: IC50 CYP1A1 activity, recombinant human CYP1A1, CEC 0.5 μM",6.93 ± 0.31 µM
same,Ki,"human CYP1A1; read-out: Ki CYP1A1, Eadie-Hofstee plots, non-competitive inhibition",7.1 ± 1.44 µM
same,inhibition of CYP1B1 activity,human CYP1B1,moderately inhibited
same,IC50,human CYP2C19,19.4 ± 1.11 µM
same,IC50,human CYP3A4,1.31 ± 0.49 µM
same,effect on B[a]P-induced CYP1A1 mRNA expression,CYP1A1 mRNA,inhibited B[a]P-induced CYP1A1 mRNA expression in a dose-dependent fashion
same,effect on B[a]P-induced CYP1A2 mRNA expression,CYP1A2 mRNA,sustained inhibition
same,"effect on 1,6-BPQ-mediated increases in ROS production","[1]; Gg 1 μM with 1,6-BPQ 2 μM",effectively suppressed
same,effect on endogenous mRNA expression of CYP1 enzymes,CYP1 enzymes mRNA,did not appreciably affect
same,effect on B[a]P-mediated induced CYP1A1 protein expression,[8],could not appreciably suppress
